Experimental data as given in patent publication US11141410B2 (MERCK SHARP & DOHME CORP., priority 2015, dated 2021).
Read-outs that look alike come from different tables or passages of the source.

Tests used:
MRSA COL (MB 5393) = experiment: In Vivo Murine Systemic Infection Model; design: species or system Female Balb/C mice; details: sc tid; for Bacteria recovered: kidneys 24 h post challenge, neutropenic mice
Procedure: The murine systemic infection model determines the therapeutic efficacy of TarO inhibitor/β-lactam combinations in vivo. Staphylococci bacteria can cause a systemic infection and establish a robust growth in the kidneys of the infected animal. MRSA COL can establish an infection even in the presence of β-lactam antibiotic due MRSA COL resistance to β-lactam antibiotics.
Female Balb/C mice were rendered neutropenic (immune suppressed) with a single 250 mg/kg intraperitoneal (ip) dose of cyclophosphamide on […]. MRSA COL (MB 5393) was grown for 16 hours in trypticase soy broth (TSB) at 37° C. and 0.5 mL of diluted culture (˜1×10^4 cfu) was administered intraperitoneal (IP). The TarO inhibitor and β-lactam antibiotic were administered alone or in combination by subcutaneous route at 2, 5 and 8 hr. post challenge (sc, tid). Twenty four hours post challenge mice were euthanized and the kidneys harvested, weighed, homogenized and plated to measure the total number of bacteria recovered as colony forming unit (CFU) remaining in compound treated groups as compared to vehicle (saline) or β-lactam antibiotic alone groups (statistical analyses was determined by one way ANOVA).

MRSA COL (MB5393) [1] = experiment: TarO Inhibitor/β-Lactam Synergy Assay (growth, OD600); format: cell-based; details: Staphylococcus aureus, read-out: MITC95 TarO inhibitor alone, Bacteria: SA_MB5393
MRSA COL (MB5393) [2] = experiment: as above; format: cell-based, Staphylococcus aureus; details: for MITC95 TarO inhibitor + 4 μg/mL IPM; Bacteria: SA_MB5393: in combination with 4 μg/mL imipenem (IPM); for MITC95 TarO inhibitor + 8 μg/mL DCX; Bacteria: SA_MB5393: in combination with 8 μg/mL dicloxacillin (DCX)
Method in brief: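 TarO inhibitors titrated 2-fold from 200 μM (2% DMSO) against MRSA COL, 5×10^5 CFU in CAMHB, with β-lactam fixed at clinical breakpoint (imipenem 4 μg/ml or dicloxacillin 8 μg/ml). Incubated 20 h at 37 °C without shaking; relative growth read as OD600.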

[3] = TarO inhibitor alone, >200 μM = 95% growth inhibition not achieved, 20 hours at 37° C.

| SMILES | IC95 (MRSA COL (MB5393) [1]; [3]) | MITC95 TarO inhibitor + 4 μg/mL IPM; Bacteria: SA_MB5393 (MRSA COL (MB5393) [2]) | MITC95 TarO inhibitor + 8 μg/mL DCX; Bacteria: SA_MB5393 (MRSA COL (MB5393) [2]) | also measured |
| --- | --- | --- | --- | --- |
| C[C@H]1[C@@H](c2cccc(C(F)(F)F)c2)OC(=O)N1C(=O)NCc1cncc2ccccc12 [Example 18, (4S,5R)-N-(isoquinolin-4-ylmethyl)-4-methyl-2-oxo-5-[3-(trifluoromethyl)phenyl]-1,3-oxazolidine-3-carboxamide] | > 200 µM | 0.23 µM | 1.95 µM | Fold reduction vs. vehicle alone (MRSA COL (MB 5393); TarO inhibitor alone 50 mg/kg): −0.9; Bacteria recovered (MRSA COL (MB 5393); TarO inhibitor alone 50 mg/kg): 6.6×10^7 cfu/g kidney |
| C[C@@H](O)[C@H]1C(=O)N2C(C(=O)O)=C(SCCN=CN)C[C@H]12 [Imipenem, imipenem, reference compound] |  |  |  | Fold reduction vs. vehicle alone (MRSA COL (MB 5393); Imipenem alone 5 mg/kg): 4.6; Bacteria recovered (MRSA COL (MB 5393); Imipenem alone 5 mg/kg): 1.3 × 10^7 cfu/g kidney; MITC95 concentration of β-lactam antibiotic alone (MRSA COL (MB5393) [2]; β-lactam alone, MRSA COL): 32 µg/mL |
| C[C@H]1[C@@H](c2cc(F)c(F)c(F)c2)OC(=O)N1C(=O)CCc1cncc2ccccc12 [Example 78, (4S,5R)-3-(3-isoquinolin-4-ylpropanoyl)-4-methyl-5-(3,4,5-trifluorophenyl)-1,3-oxazolidin-2-one] | > 200 µM | 1.17 µM |  |  |
| C[C@H]1[C@@H](c2cccc(C(C)(F)F)c2)OC(=O)N1C(=O)NCc1cncc2ccccc12 [Example 27, (4S,5R)-5-[3-(1,1-difluoroethyl)phenyl]-N-(isoquinolin-4-ylmethyl)-4-methyl-2-oxo-1,3-oxazolidine-3-carboxamide] | > 200 µM | 0.39 µM | 3.65 µM |  |
| Cc1ccc2c(n1)N(CCC(=O)N1C(=O)O[C@H](c3cc(F)cc(C(F)(F)F)c3)[C@@H]1C)CCO2 [Example 92, (4S,5R)-5-(3-fluoro-5-(trifluoromethyl)phenyl)-4-methyl-3-(3-(6-methyl-2,3-dihydro-4H-pyrido[3,2-b][1,4]oxazin-4-yl)propanoyl)oxazolidin-2-one] | > 200 µM | 0.51 µM | 7.50 µM |  |
| O=C(NCc1cncc2cccnc12)N1C(=O)O[C@H](c2cc(C(F)(F)F)cc(C(F)(F)F)c2)[C@@H]1CO [Example 53, (4S,5R)-5-[3,5-bis(trifluoromethyl)phenyl]-4-(hydroxymethyl)-N-(1,6-naph-thyridin-8-yl-methyl)-2-oxo-1,3-oxazolidine-3-carboxamide] | > 200 µM | 0.39 µM | 1.37 µM |  |
| COc1cc(C(F)(F)F)cc([C@H]2OC(=O)N(C(=O)NCc3cncc4cccnc34)[C@H]2C)n1 [Example 60, (4S,5S)—N-((1,6-naphthyridin-8-yl)methyl)-5-(6-methoxy-4-(trifluoromethyl)pyridin-2-yl)-4-methyl-2-oxooxazolidine-3-carboxamide] | > 200 µM | 0.33 µM | 1.45 µM |  |
| C[C@H]1[C@@H](c2cc(C(F)(F)F)cc(C(F)(F)F)c2)OC(=O)N1C(=O)NCC1CCCc2ccccc21 (stereo partly drawn) [Example 19, (4S,5R)-5-[3,5-bis(trifluoromethyl)phenyl]-4-methyl-2-oxo-N-(1,2,3,4-tetrahydronaphthalen-1-ylmethyl)-1,3-oxazolidine-3-carboxamide] | > 200 µM | 0.15 µM | 1.45 µM |  |
| COc1cc(C(F)(F)F)cc([C@H]2OC(=O)N(C(=O)NCc3cncc4ccccc34)[C@H]2CO)n1 [Example 63, (4S,5S)-4-(hydroxymethyl)-N-(isoquinolin-4-ylmethyl)-5-(6-methoxy-4-(trifluoromethyl)-pyridin-2-yl)-2-oxooxazolidine-3-carboxamide] |  | 0.37 µM | 1.13 µM | IC95 (MRSA COL (MB5393) [1]; 20 h): > 200 µM |
| C[C@H]1[C@@H](c2cc(F)cc(C(F)(F)F)c2)OC(=O)N1C(=O)NCc1ccccc1-n1cccc1 [Example 32, (4S,5R)-5-[3-fluoro-5-(trifluoromethyl)phenyl]-4-methyl-2-oxo-N-[2-(1H-pyrrol-1-yl)benzyl]-1,3-oxazolidine-3-carboxamide] | > 200 µM | 0.59 µM | 4.69 µM |  |
| COc1cc(C(F)(F)F)cc([C@H]2OC(=O)N(C(=O)NCc3cncc4cccnc34)[C@H]2CO)n1 [Example 64, (4S,5S)-4-(hydroxymethyl)-5-[6-methoxy-4-(trifluoromethyl)pyridin-2-yl]-N-(1,6-naphthyridin-8-ylmethyl)-2-oxo-1,3-oxazolidine-3-carboxamide] | > 200 µM | 0.94 µM | 4.38 µM |  |
| C[C@H]1[C@@H](c2cc(Br)cc(C(F)(F)F)c2)OC(=O)N1C(=O)CCc1cncc2ccccc12 [Example 88, (4S,5R)-5-[3-bromo-5-(trifluoromethyl)phenyl]-3-(3-isoquinolin-4-ylpropanoyl)-4-methyl-1,3-oxazolidin-2-one] | > 200 µM | 1.30 µM | 6.25 µM |  |
| C[C@H]1[C@@H](c2cc(F)cc(C(F)(F)F)c2)OC(=O)N1C(=O)NCc1ccnc2ccccc12 [Example 23, (4S,5R)-5-[3-fluoro-5-(trifluoromethyl)phenyl]-4-methyl-2-oxo-N-(quinolin-4-ylmethyl)-1,3-oxazolidine-3-carboxamide] | > 200 µM | 0.61 µM | 4.84 µM |  |
| O=C(NCc1cncc2ccccc12)N1C(=O)O[C@H](c2cc(F)cc(C(F)(F)F)c2)[C@@H]1CO [Example 57, (4S,5R)-5-[3-fluoro-5-(trifluoromethyl)phenyl]-4-(hydroxymethyl)-N-(isoquinolin-4-ylmethyl)-2-oxo-1,3-oxazolidine-3-carboxamide] | > 200 µM | 0.33 µM | 1.56 µM |  |
